According to ChEMBL document CHEMBL3991601, “The target landscape of clinical kinase drugs” (Science, 2017):
Calls of active or inactive are those of the source. For most assays here, no stated cut-off is given here; in the data, actives have a measured Kd and inactives only a lower limit.

Legend:
[1] = biological target: T1, Serine/threonine-protein kinase Nek9 (Homo sapiens, UniProt Q8TD19)
T1 sequence (Q8TD19 whole entry): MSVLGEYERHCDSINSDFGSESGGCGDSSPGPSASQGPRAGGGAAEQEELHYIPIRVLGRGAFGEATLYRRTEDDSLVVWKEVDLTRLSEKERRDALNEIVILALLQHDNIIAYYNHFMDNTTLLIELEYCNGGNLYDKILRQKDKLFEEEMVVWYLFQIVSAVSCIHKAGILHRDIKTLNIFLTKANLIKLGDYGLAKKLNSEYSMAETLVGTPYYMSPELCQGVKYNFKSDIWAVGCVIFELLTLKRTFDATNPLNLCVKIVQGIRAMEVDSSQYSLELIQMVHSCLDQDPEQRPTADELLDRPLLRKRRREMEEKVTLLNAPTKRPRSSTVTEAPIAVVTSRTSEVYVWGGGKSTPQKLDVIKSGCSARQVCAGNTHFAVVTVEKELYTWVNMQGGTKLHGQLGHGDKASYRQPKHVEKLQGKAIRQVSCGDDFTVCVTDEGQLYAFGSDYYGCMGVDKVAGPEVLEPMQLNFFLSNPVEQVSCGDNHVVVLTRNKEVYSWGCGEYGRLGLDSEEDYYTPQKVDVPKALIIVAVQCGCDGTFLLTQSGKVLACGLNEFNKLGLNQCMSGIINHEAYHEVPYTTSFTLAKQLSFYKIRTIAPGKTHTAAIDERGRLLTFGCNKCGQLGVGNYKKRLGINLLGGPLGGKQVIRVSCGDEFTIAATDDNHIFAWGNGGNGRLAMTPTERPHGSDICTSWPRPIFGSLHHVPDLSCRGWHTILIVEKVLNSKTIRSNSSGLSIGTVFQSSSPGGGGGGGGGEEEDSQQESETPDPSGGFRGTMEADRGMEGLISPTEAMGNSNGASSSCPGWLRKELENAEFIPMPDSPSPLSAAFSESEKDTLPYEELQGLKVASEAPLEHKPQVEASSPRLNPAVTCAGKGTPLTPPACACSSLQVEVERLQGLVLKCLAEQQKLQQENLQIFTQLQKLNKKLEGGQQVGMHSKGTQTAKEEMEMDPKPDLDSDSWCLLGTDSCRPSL

[2] = biological target: Tyrosine-protein kinase FRK (Homo sapiens, UniProt P42685)
Chain of Tyrosine-protein kinase FRK (P42685 whole entry): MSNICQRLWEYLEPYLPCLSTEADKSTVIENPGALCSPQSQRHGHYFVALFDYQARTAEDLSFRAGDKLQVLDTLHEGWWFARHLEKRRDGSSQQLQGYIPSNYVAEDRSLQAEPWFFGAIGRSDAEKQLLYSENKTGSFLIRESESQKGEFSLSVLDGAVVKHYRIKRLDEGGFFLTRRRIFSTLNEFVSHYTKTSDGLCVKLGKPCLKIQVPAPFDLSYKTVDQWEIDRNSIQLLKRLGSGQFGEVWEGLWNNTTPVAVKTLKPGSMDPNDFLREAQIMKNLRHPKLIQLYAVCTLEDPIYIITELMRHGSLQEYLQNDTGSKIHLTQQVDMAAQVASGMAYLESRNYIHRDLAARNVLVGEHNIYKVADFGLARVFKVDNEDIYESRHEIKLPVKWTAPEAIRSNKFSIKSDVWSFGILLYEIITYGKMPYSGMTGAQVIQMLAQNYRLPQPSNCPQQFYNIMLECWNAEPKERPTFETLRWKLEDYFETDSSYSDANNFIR

[3] = biological target: Protein kinase C alpha type (Homo sapiens, UniProt P17252)
[4] = biological target: 5'-AMP-activated protein kinase catalytic subunit alpha-1 (Homo sapiens, UniProt Q13131)
Chain of 5'-AMP-activated protein kinase catalytic subunit alpha-1 (Q13131 whole entry): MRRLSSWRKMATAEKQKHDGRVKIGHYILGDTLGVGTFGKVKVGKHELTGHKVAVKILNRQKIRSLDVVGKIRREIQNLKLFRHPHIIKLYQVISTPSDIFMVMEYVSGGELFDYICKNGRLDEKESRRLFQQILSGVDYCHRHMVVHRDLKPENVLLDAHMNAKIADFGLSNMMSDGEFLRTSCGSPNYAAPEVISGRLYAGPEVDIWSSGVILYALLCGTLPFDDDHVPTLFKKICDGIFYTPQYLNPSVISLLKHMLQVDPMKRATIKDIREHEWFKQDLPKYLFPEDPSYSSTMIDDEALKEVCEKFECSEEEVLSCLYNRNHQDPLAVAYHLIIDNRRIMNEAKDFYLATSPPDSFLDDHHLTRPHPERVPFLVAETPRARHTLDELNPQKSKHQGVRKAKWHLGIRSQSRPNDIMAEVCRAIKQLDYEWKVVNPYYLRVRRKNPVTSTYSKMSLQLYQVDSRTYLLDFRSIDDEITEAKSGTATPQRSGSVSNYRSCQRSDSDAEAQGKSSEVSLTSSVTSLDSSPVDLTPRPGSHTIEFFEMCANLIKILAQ

[5] = biological target: Hepatocyte growth factor receptor (Homo sapiens, UniProt P08581)
Chain of Hepatocyte growth factor receptor (P08581 whole entry): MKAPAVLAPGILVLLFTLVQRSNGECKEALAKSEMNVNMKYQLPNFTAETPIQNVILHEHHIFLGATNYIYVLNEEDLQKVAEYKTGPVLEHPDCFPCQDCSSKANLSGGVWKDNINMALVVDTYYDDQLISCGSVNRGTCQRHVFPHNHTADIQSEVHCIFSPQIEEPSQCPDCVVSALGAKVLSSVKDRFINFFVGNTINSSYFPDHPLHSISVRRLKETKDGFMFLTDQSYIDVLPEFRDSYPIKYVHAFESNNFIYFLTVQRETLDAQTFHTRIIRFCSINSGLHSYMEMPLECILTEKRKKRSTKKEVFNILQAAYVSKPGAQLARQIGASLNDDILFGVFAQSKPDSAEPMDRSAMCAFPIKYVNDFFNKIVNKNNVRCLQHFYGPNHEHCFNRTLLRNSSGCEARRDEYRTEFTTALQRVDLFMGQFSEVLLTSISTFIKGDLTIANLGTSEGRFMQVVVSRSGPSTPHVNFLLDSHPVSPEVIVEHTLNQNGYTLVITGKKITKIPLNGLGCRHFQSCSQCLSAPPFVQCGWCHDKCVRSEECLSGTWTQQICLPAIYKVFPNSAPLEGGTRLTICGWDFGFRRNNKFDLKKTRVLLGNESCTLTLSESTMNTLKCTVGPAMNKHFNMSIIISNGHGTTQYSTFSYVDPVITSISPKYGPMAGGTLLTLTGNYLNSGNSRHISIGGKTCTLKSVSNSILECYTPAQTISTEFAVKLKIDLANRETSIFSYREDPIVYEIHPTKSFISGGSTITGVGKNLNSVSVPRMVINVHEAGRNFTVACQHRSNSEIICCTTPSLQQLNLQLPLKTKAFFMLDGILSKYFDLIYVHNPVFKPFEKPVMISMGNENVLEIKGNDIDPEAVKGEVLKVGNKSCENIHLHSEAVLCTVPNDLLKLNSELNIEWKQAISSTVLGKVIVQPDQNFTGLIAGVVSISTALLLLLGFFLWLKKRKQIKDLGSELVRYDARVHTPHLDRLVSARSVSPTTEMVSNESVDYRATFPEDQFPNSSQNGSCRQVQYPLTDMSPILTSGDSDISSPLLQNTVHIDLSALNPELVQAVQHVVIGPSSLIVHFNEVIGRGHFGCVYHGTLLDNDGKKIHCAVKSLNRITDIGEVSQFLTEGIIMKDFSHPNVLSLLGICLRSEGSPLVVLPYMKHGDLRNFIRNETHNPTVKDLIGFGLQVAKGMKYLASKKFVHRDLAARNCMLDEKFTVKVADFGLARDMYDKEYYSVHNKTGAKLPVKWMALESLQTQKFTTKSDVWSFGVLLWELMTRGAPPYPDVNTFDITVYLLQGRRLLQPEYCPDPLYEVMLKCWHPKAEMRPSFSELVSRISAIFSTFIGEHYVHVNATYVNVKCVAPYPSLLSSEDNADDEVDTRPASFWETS

[6] = biological target: T2, Mitogen-activated protein kinase kinase kinase kinase 3 (Homo sapiens, UniProt Q8IVH8)
T2 sequence (Q8IVH8 whole entry): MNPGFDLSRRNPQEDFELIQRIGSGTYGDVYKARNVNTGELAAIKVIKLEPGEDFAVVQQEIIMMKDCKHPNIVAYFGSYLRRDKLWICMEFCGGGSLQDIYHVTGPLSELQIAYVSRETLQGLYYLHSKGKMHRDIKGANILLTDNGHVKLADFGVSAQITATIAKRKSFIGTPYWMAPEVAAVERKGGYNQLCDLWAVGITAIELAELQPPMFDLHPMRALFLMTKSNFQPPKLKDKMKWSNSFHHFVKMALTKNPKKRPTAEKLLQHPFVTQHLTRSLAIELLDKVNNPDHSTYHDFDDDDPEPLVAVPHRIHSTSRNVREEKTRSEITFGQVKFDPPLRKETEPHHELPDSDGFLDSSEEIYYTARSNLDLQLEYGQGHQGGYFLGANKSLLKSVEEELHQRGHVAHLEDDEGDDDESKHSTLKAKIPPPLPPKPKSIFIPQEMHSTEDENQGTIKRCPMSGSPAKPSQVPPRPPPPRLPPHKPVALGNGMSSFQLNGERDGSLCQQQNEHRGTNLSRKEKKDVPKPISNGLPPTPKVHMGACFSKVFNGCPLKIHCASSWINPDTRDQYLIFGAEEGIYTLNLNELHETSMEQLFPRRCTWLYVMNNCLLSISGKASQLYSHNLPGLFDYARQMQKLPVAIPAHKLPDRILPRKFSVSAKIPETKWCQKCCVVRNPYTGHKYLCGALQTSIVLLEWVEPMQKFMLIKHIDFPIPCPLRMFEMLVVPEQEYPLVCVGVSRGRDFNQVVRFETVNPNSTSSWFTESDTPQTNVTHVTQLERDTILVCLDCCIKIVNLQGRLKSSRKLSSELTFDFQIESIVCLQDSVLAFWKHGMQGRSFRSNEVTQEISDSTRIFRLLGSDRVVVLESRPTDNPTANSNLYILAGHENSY

[7] = biological target: RAC-gamma serine/threonine-protein kinase (Homo sapiens, UniProt Q9Y243)
Chain of RAC-gamma serine/threonine-protein kinase (Q9Y243 whole entry): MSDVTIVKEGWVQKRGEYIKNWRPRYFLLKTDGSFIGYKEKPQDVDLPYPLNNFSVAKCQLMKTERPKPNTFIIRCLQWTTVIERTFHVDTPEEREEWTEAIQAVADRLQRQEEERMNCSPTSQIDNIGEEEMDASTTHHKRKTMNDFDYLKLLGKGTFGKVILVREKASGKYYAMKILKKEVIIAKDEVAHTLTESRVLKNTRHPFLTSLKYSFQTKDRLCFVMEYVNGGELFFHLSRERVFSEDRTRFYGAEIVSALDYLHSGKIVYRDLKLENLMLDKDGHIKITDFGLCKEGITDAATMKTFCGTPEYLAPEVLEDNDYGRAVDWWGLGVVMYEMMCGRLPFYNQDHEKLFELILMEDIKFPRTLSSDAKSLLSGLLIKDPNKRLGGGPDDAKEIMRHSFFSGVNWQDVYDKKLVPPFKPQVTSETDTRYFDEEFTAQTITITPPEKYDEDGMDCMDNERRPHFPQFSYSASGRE

Septin-9 = biological target: T3, Septin-9 (Homo sapiens, UniProt Q9UHD8)
T3 sequence (Q9UHD8 whole entry): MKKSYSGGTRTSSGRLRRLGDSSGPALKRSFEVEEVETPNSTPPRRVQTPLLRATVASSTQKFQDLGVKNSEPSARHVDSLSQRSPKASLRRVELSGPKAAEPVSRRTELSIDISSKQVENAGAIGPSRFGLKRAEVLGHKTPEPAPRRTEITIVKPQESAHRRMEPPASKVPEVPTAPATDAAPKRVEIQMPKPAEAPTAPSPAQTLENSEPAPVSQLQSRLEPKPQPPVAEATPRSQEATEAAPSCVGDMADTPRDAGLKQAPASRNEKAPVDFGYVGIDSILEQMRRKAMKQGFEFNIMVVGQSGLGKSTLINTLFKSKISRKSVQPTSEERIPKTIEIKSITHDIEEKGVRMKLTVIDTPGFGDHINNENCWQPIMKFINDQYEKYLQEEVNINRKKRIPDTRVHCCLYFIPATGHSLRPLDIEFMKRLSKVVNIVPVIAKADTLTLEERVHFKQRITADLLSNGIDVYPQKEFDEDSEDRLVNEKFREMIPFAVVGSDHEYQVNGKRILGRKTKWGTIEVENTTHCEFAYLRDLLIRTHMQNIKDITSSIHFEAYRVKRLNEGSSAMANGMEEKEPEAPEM

[8] = biological target: T4, EKC/KEOPS complex subunit TP53RK (Homo sapiens, UniProt Q96S44)
T4 sequence (Q96S44 whole entry): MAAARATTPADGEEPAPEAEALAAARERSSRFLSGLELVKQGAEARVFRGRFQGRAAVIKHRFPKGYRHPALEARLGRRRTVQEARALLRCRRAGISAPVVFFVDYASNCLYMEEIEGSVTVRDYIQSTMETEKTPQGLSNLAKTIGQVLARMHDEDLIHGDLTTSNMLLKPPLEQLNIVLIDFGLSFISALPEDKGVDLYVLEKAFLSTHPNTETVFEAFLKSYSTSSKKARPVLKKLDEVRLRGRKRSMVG

Measured: Kd

CN(C[C@@H]1COCCO1)S(=O)(=O)Nc1ccc2ccc3ncc(-c4cnn(C)c4)cc3c(=O)c2c1 [MK-2461]
inactive: [1] > 30 µM | [2] > 30 µM | [3] > 30 µM | [4] > 30 µM | [5] > 30 µM | [6] > 30 µM | [7] > 30 µM | Septin-9 > 30 µM | [8] > 30 µM

CN1C/C=C/CCOc2cccc(c2)-c2ccnc(n2)Nc2cccc(c2)C1 [ZOTIRACICLIB]
inactive: [1] > 30 µM | [2] > 30 µM | [4] > 30 µM | [5] > 30 µM | [7] > 30 µM | Septin-9 > 30 µM | [8] > 30 µM
active: [3] 0.885 µM | [6] 0.85 µM

CC(=O)c1cnc2ccc(-c3cc(Cl)c(O)c(Cl)c3)nc2c1N[C@H]1CC[C@H](CN(C)C)CC1
inactive: [1] > 30 µM | [2] > 30 µM | [5] > 30 µM | [6] > 30 µM | [7] > 30 µM | Septin-9 > 30 µM
active: [8] 0.311 µM

Cc1cc(Nc2ncc(Cl)c(Nc3ccccc3S(=O)(=O)C(C)C)n2)c(OC(C)C)cc1C1CCNCC1 [CERITINIB]
inactive: [1] > 30 µM | [2] > 30 µM | [3] > 30 µM | [4] > 30 µM | [5] > 30 µM | [6] > 30 µM | [7] > 30 µM | Septin-9 > 30 µM | [8] > 30 µM

Cc1nc2cc(-n3ncc(C(=O)c4cc5ccccc5[nH]4)c3N)ccc2[nH]1 [FGFR INHIBITOR DEBIO 1347]
inactive: [1] > 30 µM | [2] > 30 µM | [3] > 30 µM | [4] > 30 µM | [5] > 30 µM | [6] > 30 µM | [7] > 30 µM | Septin-9 > 30 µM | [8] > 30 µM

CCn1cc(-c2ccnc3[nH]c(-c4cccc(CN(C)C)c4)cc23)c(-c2ccc(NC(=O)N(C)C)cc2)n1 [GSK-1070916]
active: [7] 3.29 µM
inactive: [1] > 30 µM | [2] > 30 µM | [3] > 30 µM | [4] > 30 µM | [5] > 30 µM | Septin-9 > 30 µM | [8] > 30 µM

C[C@@H](N)c1ccc(C(=O)Nc2ccnc3[nH]ccc23)cc1 [Y-39983]
inactive: [1] > 30 µM | [2] > 30 µM | [4] > 30 µM | [5] > 30 µM | [6] > 30 µM | [7] > 30 µM | Septin-9 > 30 µM | [8] > 30 µM
active: [3] 3.28 µM

N#CC1(c2ccc(NC(=O)c3cccnc3NCc3ccncc3)cc2)CCCC1 [RIVOCERANIB]
inactive: [1] > 30 µM | [2] > 30 µM | [3] > 30 µM | [4] > 30 µM | [5] > 30 µM | [6] > 30 µM | [7] > 30 µM | Septin-9 > 30 µM | [8] > 30 µM

CC(C)c1cc(CNc2nc(Nc3cc(C4CC4)[nH]n3)cc(N3CCN(C)CC3)n2)on1 [XL-228]
active: [3] 2.28 µM | [4] 0.38 µM | [6] 0.526 µM
inactive: [1] > 30 µM | [2] > 30 µM | [5] > 30 µM | [7] > 30 µM | Septin-9 > 30 µM | [8] > 30 µM

CO[C@H]1C[C@@H]2CC[C@@H](C)[C@@](O)(O2)C(=O)C(=O)N2CCCC[C@H]2C(=O)O[C@H]([C@H](C)C[C@@H]2CC[C@@H](O)[C@H](OC)C2)CC(=O)[C@H](C)/C=C(\C)[C@@H](O)[C@@H](OC)C(=O)[C@H](C)C[C@H](C)/C=C/C=C/C=C/1C [SIROLIMUS]
inactive: [1] > 30 µM | [2] > 30 µM | [3] > 30 µM | [4] > 30 µM | [5] > 30 µM | [6] > 30 µM | [7] > 30 µM | Septin-9 > 30 µM | [8] > 30 µM

CCS(=O)(=O)c1cccc(-c2cc(C(=O)NC3CCN(C)CC3)c(C)c3[nH]c4ncc(C)cc4c23)c1 [TAK-901]
inactive: [1] > 30 µM | [5] > 30 µM | [7] > 30 µM | Septin-9 > 30 µM | [8] > 30 µM
active: [2] 0.222 µM | [3] 1.61 µM
9.28 µM: [6]

NC1(c2ccc(-c3nc4ccn5c(=O)[nH]nc5c4cc3-c3ccccc3)cc2)CCC1 [MK-2206]
inactive: [1] > 30 µM | [2] > 30 µM | [3] > 30 µM | [4] > 30 µM | [5] > 30 µM | [6] > 30 µM | Septin-9 > 30 µM | [8] > 30 µM

Cn1ncc(Cl)c1-c1cc(C(=O)N[C@H](CN)Cc2ccc(F)c(F)c2)oc1Cl [UPROSERTIB]
inactive: [1] > 30 µM | [2] > 30 µM | [4] > 30 µM | [5] > 30 µM | [6] > 30 µM | Septin-9 > 30 µM | [8] > 30 µM
active: [3] 1.67 µM

C[C@H]1CNCCCN1S(=O)(=O)c1cccc2cncc(F)c12
active: [4] 3.27 µM
3.22 µM: [6]
inactive: [1] > 30 µM | [2] > 30 µM | [3] > 30 µM | [5] > 30 µM | Septin-9 > 30 µM | [8] > 30 µM

CNC(=O)c1cc(Oc2ccc(NC(=O)Nc3cc(C(C)(C)C)nn3-c3ccc4ncccc4c3)c(F)c2)ccn1 [REBASTINIB]
active: [5] 0.126 µM
inactive: [3] > 30 µM | [4] > 30 µM | [6] > 30 µM | [7] > 30 µM | Septin-9 > 30 µM | [8] > 30 µM
